According to ChEMBL document CHEMBL1136454, “Synthesis and biological activity of N-Acylated ornithine analogues of daptomycin” (Bioorg Med Chem Lett, 2003):
Converted amounts (≈) assume the structure as drawn.

How the values were obtained:
Staphylococcus aureus [1] = assay: Antibacterial activity against methicillin susceptible Staphylococcus aureus ATCC 29213 (MSSA ); format: functional
Staphylococcus aureus [2] = assay: Antibacterial activity against methicillin resistant Staphylococcus aureus ATCC 43300 (MRSA); format: functional
Enterococcus faecium = assay: Antibacterial activity against Enterococcus faecium ATCC 6569; format: functional
Enterococcus faecalis = assay: Antibacterial activity against Enterococcus faecalis ATCC 49452; format: functional
[3] = In vivo Tmax was determined in murine septicemia at dose of 50 mg/kg; format: ADME, organism-based; parameters: dose 50 mg/kg; settings: mouse
[4] = In vivo volume distribution (Vd) was determined in murine septicemia at dose of 50 mg/kg; format: ADME, organism-based; parameters: dose 50 mg/kg; settings: mouse
[5] = In vivo Cmax in mice at dose of 50 mg/kg; format: ADME, organism-based; parameters: dose 50 mg/kg; settings: mouse
[6] = In vivo half life period was determined in murine septicemia at dose of 50 mg/kg; format: ADME, organism-based; parameters: dose 50 mg/kg; settings: mouse
[7] = In vivo area under curve (AUC) was determined in murine septicemia at dose of 50 mg/kg; format: ADME, organism-based; parameters: dose 50 mg/kg; settings: mouse
[8] = In vivo total clearance was determined in murine septicemia at dose of 50 mg/kg; format: ADME, organism-based; parameters: dose 50 mg/kg; settings: mouse, read-out: CLtotal (converted)
Mus musculus = assay: Antibacterial activity was determined by protection from death of mice infected by methicillin resistant Staphylococcus aureus (MRSA) upon sc administration of compound after 4 hr of post infection; format: functional; settings: read-out: PD50

Row | Compound | MIC (Staphylococcus aureus [1]) | MIC (Staphylococcus aureus [2]) | MIC (Enterococcus faecium) | MIC (Enterococcus faecalis) | Tmax [3] | Vd [4] | Cmax [5] | half-life [6] | AUC [7] | clearance [8] | ED50 (Mus musculus)
1 | CCCCCCCCCC(=O)N[C@@H](Cc1c[nH]c2ccccc12)C(=O)N[C@H](CC(N)=O)C(=O)N[C@@H](CC(=O)O)C(=O)N[C@@H]1C(=O)NCC(=O)N[C@@H](CCCNC(=O)CCc2c[nH]c3ccccc23)C(=O)N[C@@H](CC(=O)O)C(=O)N[C@H](C)C(=O)N[C@@H](CC(=O)O)C(=O)NCC(=O)N[C@H](CO)C(=O)N[C@@H]([C@H](C)CC(=O)O)C(=O)N[C@@H](CC(=O)c2ccccc2N)C(=O)O[C@@H]1C | 1.56 µg/mL (≈ 0.871 µM) | 1.56 µg/mL (≈ 0.871 µM) | 12.5 µg/mL (≈ 6.98 µM) | 25 µg/mL (≈ 14 µM) | – | – | – | – | – | – | –
2 | CCCCCCCCCC(=O)N[C@@H](Cc1c[nH]c2ccccc12)C(=O)N[C@H](CC(N)=O)C(=O)N[C@@H](CC(=O)O)C(=O)N[C@@H]1C(=O)NCC(=O)N[C@@H](CCCNC(=O)CC(C)(C)C(=O)O)C(=O)N[C@@H](CC(=O)O)C(=O)N[C@H](C)C(=O)N[C@@H](CC(=O)O)C(=O)NCC(=O)N[C@H](CO)C(=O)N[C@@H]([C@H](C)CC(=O)O)C(=O)N[C@@H](CC(=O)c2ccccc2N)C(=O)O[C@@H]1C | 12.5 µg/mL (≈ 7.15 µM) | 12.5 µg/mL (≈ 7.15 µM) | 50 µg/mL (≈ 28.6 µM) | 50 µg/mL (≈ 28.6 µM) | – | – | – | – | – | – | –
3 | CCCCCCCCCC(=O)N[C@@H](Cc1c[nH]c2ccccc12)C(=O)N[C@H](CC(N)=O)C(=O)N[C@@H](CC(=O)O)C(=O)N[C@@H]1C(=O)NCC(=O)N[C@@H](CCCNC(=O)[C@@H](N)CCCCN)C(=O)N[C@@H](CC(=O)O)C(=O)N[C@H](C)C(=O)N[C@@H](CC(=O)O)C(=O)NCC(=O)N[C@H](CO)C(=O)N[C@@H]([C@H](C)CC(=O)O)C(=O)N[C@@H](CC(=O)c2ccccc2N)C(=O)O[C@@H]1C [listing 1 of 2 here] | – | – | – | – | 0.5 h | 0.147 L/kg | 297 µg/mL | 1.2 h | 589 µg·h/mL | 1.42 mL/min/kg | –
4 | CCCCCCCCCC(=O)N[C@@H](Cc1c[nH]c2ccccc12)C(=O)N[C@H](CC(N)=O)C(=O)N[C@@H](CC(=O)O)C(=O)N[C@@H]1C(=O)NCC(=O)N[C@@H](CCCNC(=O)[C@@H](N)CCCCN)C(=O)N[C@@H](CC(=O)O)C(=O)N[C@H](C)C(=O)N[C@@H](CC(=O)O)C(=O)NCC(=O)N[C@H](CO)C(=O)N[C@@H]([C@H](C)CC(=O)O)C(=O)N[C@@H](CC(=O)c2ccccc2N)C(=O)O[C@@H]1C [listing 2 of 2 here] | 1.56 µg/mL (≈ 0.892 µM) | 0.78 µg/mL (≈ 0.446 µM) | – | 6.25 µg/mL (≈ 3.57 µM) | – | – | – | – | – | – | 1.1 mg/kg
5 | CCCCCCCCCC(=O)N[C@@H](Cc1c[nH]c2ccccc12)C(=O)N[C@H](CC(N)=O)C(=O)N[C@@H](CC(=O)O)C(=O)N[C@@H]1C(=O)NCC(=O)N[C@@H](CCCNC(=O)c2c(N)ccc3ccccc23)C(=O)N[C@@H](CC(=O)O)C(=O)N[C@H](C)C(=O)N[C@@H](CC(=O)O)C(=O)NCC(=O)N[C@H](CO)C(=O)N[C@@H]([C@H](C)CC(=O)O)C(=O)N[C@@H](CC(=O)c2ccccc2N)C(=O)O[C@@H]1C [listing 1 of 2 here] | – | – | – | – | 4 h | 0.143 L/kg | 230 µg/mL | 5.6 h | 2820 µg·h/mL | 0.3 mL/min/kg | –
6 | CCCCCCCCCC(=O)N[C@@H](Cc1c[nH]c2ccccc12)C(=O)N[C@H](CC(N)=O)C(=O)N[C@@H](CC(=O)O)C(=O)N[C@@H]1C(=O)NCC(=O)N[C@@H](CCCNC(=O)c2c(N)ccc3ccccc23)C(=O)N[C@@H](CC(=O)O)C(=O)N[C@H](C)C(=O)N[C@@H](CC(=O)O)C(=O)NCC(=O)N[C@H](CO)C(=O)N[C@@H]([C@H](C)CC(=O)O)C(=O)N[C@@H](CC(=O)c2ccccc2N)C(=O)O[C@@H]1C [listing 2 of 2 here] | 0.78 µg/mL (≈ 0.436 µM) | 0.78 µg/mL (≈ 0.436 µM) | 6.25 µg/mL (≈ 3.49 µM) | 6.25 µg/mL (≈ 3.49 µM) | – | – | – | – | – | – | 2.1 mg/kg
7 | CCCCCCCCCC(=O)N[C@@H](Cc1c[nH]c2ccccc12)C(=O)N[C@H](CC(N)=O)C(=O)N[C@@H](CC(=O)O)C(=O)N[C@@H]1C(=O)NCC(=O)N[C@@H](CCCNC(=N)N)C(=O)N[C@@H](CC(=O)O)C(=O)N[C@H](C)C(=O)N[C@@H](CC(=O)O)C(=O)NCC(=O)N[C@H](CO)C(=O)N[C@@H]([C@H](C)CC(=O)O)C(=O)N[C@@H](CC(=O)c2ccccc2N)C(=O)O[C@@H]1C | – | – | – | – | 0.5 h | 0.198 L/kg | 254 µg/mL | 2.1 h | 766 µg·h/mL | 1.08 mL/min/kg | –
